{"source": "patent US8822440B2", "about": "“Inhibiting cyclin D polypeptides” (Mayo Foundation for Medical Education and Research, priority 2006, dated 2014)", "key": {"[1]": {"test_system": "8226 tumors", "assay": "8226 myeloma xenograft in nude mice", "assay_type": "in vivo", "experimental": "FIG. 14. Kinetin riboside induces tumor growth arrest in My5 and 8226 myeloma tumor xenografts. (A) Matched pairs of nude mice bearing My5 tumors were treated intra-peritoneally (i.p.) with vehicle control (□) or with kinetin riboside (▪) at escalating dose-density from 100 mg/kg once daily to 85mg/kg 5×/daily, administered 5 days per week, commencing after mean tumor volume reached 135mm^3. Mean tumor volumes±SEM are shown from the time of xenografting (n=4/group). […]\n(§1) Female nude X-linked immune-deficient (BNX) mice purchased from NCI-Frederick were used for in vivo studies. Animals had access to food and water ad libitum and were handled in accordance with animal care and use guidelines. Eight-week-old mice were inoculated with My5 or 8226 (2×10^7) MM cells subcutaneously (s.c.) in the right flank. Kinetin riboside (pre-dissolved in DMSO at 500 mg/mL and stored at −20° C.) was formulated daily by dropwise dissolution to 3.7 mg/mL in pre-warmed (37° C.) 0.9% saline, 1% β2-hydroxypropylcyclodextrin (Sigma) solution and was administered 1×-5× daily at 85 mg/kg/dose. The first dose daily was given intraperitoneally and remaining doses were given s.c. with increasing dosing intervals (30, 60, 120, 180 minutes). Tumor volumes were measured using vernier calipers and calculated with the formula L×W×H×2/3. P-values were calculated by paired t-test (JMP 6.0, SAS; Cary, N.C.)."}, "[2]": {"assay": "Tolerability of kinetin riboside in xenografted BNX mice", "assay_type": "in vivo", "experimental": "as §1\nThe anti-tumor activity of kinetin riboside in vivo was evaluated against My5 and 8226 human myeloma tumors grown as xenografts in nude mice. Drug or vehicle were initially administered once daily with dosing up to100 mg/kg/day, however, no effect on 8226 or My5 (FIG. 14A) tumor growth was observed. […] Xenograft studies were then repeated with 8226 tumors using kinetin riboside 85 mg/kg 4× daily upfront, started when tumors had reached a mean volume of 135 mm^3 (FIG. 14B). […] No effects on neutrophil counts (at 14 days treatment) or on body weight were observed."}, "[3]": {"conditions": "mouse, in vivo", "description": "Kinetin riboside toxicity in mice. In vivo toxicity studies of synthetic kinetin riboside were initiated in balc/c mice. […] The actual volume of distribution and the half-life of kinetin riboside in vivo are at present unknown and future schedules of administration may require adjustment to account for these."}, "[4]": {"test_system": "My5 tumors", "assay": "My5 myeloma xenograft in nude mice", "assay_type": "in vivo", "conditions": "for effect on My5 tumors: 85 mg/kg/dose", "experimental": "FIG. 14. Kinetin riboside induces tumor growth arrest in My5 and 8226 myeloma tumor xenografts. (A) Matched pairs of nude mice bearing My5 tumors were treated intra-peritoneally (i.p.) with vehicle control (□) or with kinetin riboside (▪) at escalating dose-density from 100 mg/kg once daily to 85mg/kg 5×/daily, administered 5 days per week, commencing after mean tumor volume reached 135mm^3. Mean tumor volumes±SEM are shown from the time of xenografting (n=4/group). (B) Nude mice bearing 8226 tumors were treated with vehicle (□) or with kinetin riboside (▪) (n=4/group), commencing at 85 mg/kg QID (i.p. and s.c.) when the mean tumor volume exceeded 135 mm^3.\nas §1"}, "[5]": {"test_system": "HMCL", "assay": "Annexin V / propidium iodide flow cytometry of HMCL", "assay_type": "cell-based, human", "experimental": "Flow cytometry. HMCL were treated as indicated and then washed in cold phosphate-buffered saline (PBS) and resuspended in buffer containing AnnexinV-FITC and propidium iodide (BD Biosciences, San Jose, Calif.) for 15 minutes at room temperature. Cells (10^5) were subsequently diluted and analyzed immediately by flow cytometry (FACScan, BD Biosciences, San Jose, Calif.) using CellQuest software. Patient bone marrow specimens were prepared and analyzed in a similar fashion using AnnexinV-FITC and anti-CD138-PE (BD Biosciences, San Jose, Calif.)."}, "[6]": {"test_system": "human myeloma cell lines (HMCL)", "assay": "HMCL viability / cytotoxicity (MTT, MTS)", "assay_type": "cell-based", "conditions": "for IC50: Homo sapiens", "experimental": "Subsequent validation studies using selected compounds in human myeloma cell lines (HMCL) confirmed successful suppression of both cyclin D2 and D1 polypeptides. Each of these compounds was then shown to be cytotoxic to a genetically diverse and standardized panel of 14 HMCL in MTT assays: monensin (10-760 nM), camptothecin (5-700 nM), dihydrogambogic acid (250-800 nM), pristimerin (150-500 nM), and kinetin riboside (2.5-20 μM). Cell cycle analysis confirmed induction of G0/G1 phase arrest for most compounds, consistent with cyclin D inhibition.\nViability assay. The effects of screened compounds on cell viability was assessed by 3-(4,5-dimethyl[…])-5-(3-carboxymethoxyphenyl)-2-(4-sulfophenyl)-2-H-tetrazolium (MTS) assay according to the manufacture's instructions (Progmega, Madison, Wis.). MTS reagent (20 μL/well in 96 well plates) was added to cells, and these were then incubated at 37° C. for 4 hours. Absorbance at 490 nm was determined using a 96-well plate reader."}, "[7]": {"conditions": "once daily, up to 100 mg/kg/day"}}, "note": "Where “and” joins values, the source holds several entries; their conditions need not be identical. Equal entries are not always repeated. Where two headings read alike, the source gives them in different places.", "data": [{"smiles": "OC[C@H]1O[C@@H](n2cnc3c(NCc4ccco4)ncnc32)[C@H](O)[C@@H]1O", "note": "[kinetin riboside, N6-Furfuryladenosine]", "values": [{"measurement": "effect on 8226 tumors compared to vehicle-treated mice", "setting": "[1]; 85 mg/kg 4× daily upfront, p<0.01", "result": "Statistically significant tumor growth inhibition"}, {"measurement": "effect on 8226 tumor growth", "setting": "[1]; [7]", "result": "no effect"}, {"measurement": "effect on neutrophil counts", "setting": "[2]; at 14 days treatment", "result": "No effects"}, {"measurement": "effect on body weight", "setting": "[2]; mouse, in vivo", "result": "No effects"}, {"measurement": "tolerability of rapidly repeated doses", "setting": "[2]; up to five per day at 85 mg/kg/dose", "result": "well tolerated"}, {"measurement": "final concentration equated from a dose of 25 mg/kg", "setting": "[3]; BALB/c (printed as \"balc/c\"), 25 mg/kg", "result": "about 60 μM"}, {"measurement": "duration of hypoactivity after treatment", "setting": "[3]; BALB/c", "result": "15 to 30", "unit": "min"}, {"measurement": "maximum tolerated single dose (MTDs)", "setting": "[3]; BALB/c, ip", "result": "~100", "unit": "mg/kg"}, {"measurement": "maximum tolerated single dose (MTDs)", "setting": "[3]; BALB/c, iv", "result": "about 25 mg/kg"}, {"measurement": "tolerability of multi-dose regimen", "setting": "[3]", "result": "well tolerated"}, {"measurement": "effect on My5 tumors", "setting": "[4]; 4× daily dosing", "result": "tumor stasis"}, {"measurement": "effect on My5 tumors", "setting": "[4]; 5x daily dosing", "result": "regression of tumors"}, {"measurement": "effect on My5 tumor growth", "setting": "[4]; [7]", "result": "no effect"}, {"measurement": "time to Annexin-V surface binding and loss of CD138 expression", "setting": "[5]", "result": "24 to 96", "unit": "h"}, {"measurement": "response of H929 cells", "setting": "[5]; H929, 10 μM", "result": "apoptosis"}, {"measurement": "response of U266 cells", "setting": "[5]; U266, 10 μM, 96 hours", "result": "growth inhibition"}, {"measurement": "IC50", "setting": "[6]; 48 h, 8 out of 12 HMCL", "result": "< 1.7 µg/mL and < 5 µM"}, {"measurement": "IC50", "setting": "[6]; 48 h, 11/12 HMCL", "result": "< 5 µg/mL and < 15 µM"}, {"measurement": "IC50", "setting": "[6]; JJN-3, JJN3", "result": "~5", "unit": "µM"}, {"measurement": "IC50", "setting": "[6]; U-266, U266", "result": "> 20", "unit": "µM"}, {"measurement": "cytotoxic concentration across panel of 14 HMCL", "setting": "[6]; human", "result": "2.5 to 20", "unit": "µM"}]}]}
